Results from patent publication US20250320206A1, “STAT6 DEGRADERS” (Gilead Sciences, Inc., priority 2024, published 2025).

What was measured:
STAT6 = biological target: T1, STAT6 (Homo sapiens, UniProt P42226); test: Stat6 Degrader Assay (HiBiT based, HeLa LgBiT clone 4.14); assay type: cell-based; conditions: HeLa LgBiT clone 4.14 HiBiT-STAT6, 4-24 h incubation; values given for compounds with >80% Emax; geometric mean; read-out: STAT6 degradation DC50
T1 construct: These cells express endogenous STAT6; host or cells: HeLa LgBiT clone 4.14
T1 sequence (P42226 1-847): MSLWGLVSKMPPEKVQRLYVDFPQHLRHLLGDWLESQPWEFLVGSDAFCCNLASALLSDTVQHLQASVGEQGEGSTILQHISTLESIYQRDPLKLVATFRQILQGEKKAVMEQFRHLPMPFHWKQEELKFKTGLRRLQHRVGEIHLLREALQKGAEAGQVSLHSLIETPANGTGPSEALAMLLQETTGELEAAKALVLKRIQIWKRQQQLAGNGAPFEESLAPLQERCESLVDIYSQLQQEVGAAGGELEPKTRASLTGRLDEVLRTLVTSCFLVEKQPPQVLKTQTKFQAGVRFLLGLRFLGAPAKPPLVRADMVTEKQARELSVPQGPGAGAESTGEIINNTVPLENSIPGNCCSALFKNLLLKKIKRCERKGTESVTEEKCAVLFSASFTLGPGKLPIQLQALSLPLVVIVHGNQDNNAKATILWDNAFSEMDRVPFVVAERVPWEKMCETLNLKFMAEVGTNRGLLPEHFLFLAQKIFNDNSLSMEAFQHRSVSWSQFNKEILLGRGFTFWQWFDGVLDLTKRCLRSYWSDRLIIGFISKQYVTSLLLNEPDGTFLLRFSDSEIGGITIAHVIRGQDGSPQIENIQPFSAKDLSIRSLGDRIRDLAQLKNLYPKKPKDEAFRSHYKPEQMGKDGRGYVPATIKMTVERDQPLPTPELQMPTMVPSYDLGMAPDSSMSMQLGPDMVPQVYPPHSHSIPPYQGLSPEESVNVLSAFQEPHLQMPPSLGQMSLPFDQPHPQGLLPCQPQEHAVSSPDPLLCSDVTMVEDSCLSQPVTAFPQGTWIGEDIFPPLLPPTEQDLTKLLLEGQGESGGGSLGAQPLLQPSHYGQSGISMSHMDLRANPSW
Method in brief: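 HeLa LgBiT clone 4.14 cells with CRISPR HiBiT-tagged endogenous STAT6, 5000 cells/well, compound dosed then incubated 4-24 h at 37° C, 5% CO2. Nano-Glo substrate added, 0.5 h, luminescence read as non-degraded STAT6. Terfenadine 50 μM (cell kill) defines 100% degradation.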

[1] = system: Eotaxin-3 release in human whole blood stimulated with IL-4; test: Human Whole Blood Eotaxin-3 Assay (IL-4 stimulated eotaxin-3 release); assay type: cell-based; conditions: IL-4 stimulation, 48 h, values given for compounds with >80% Emax, geometric mean
Method in brief: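 Lithium-heparin human whole blood preincubated 2 h at 37° C with 4-fold serially diluted compounds (0.5% DMSO), then stimulated with recombinant human IL-4 ([…]) for 48 h. Eotaxin-3 (CCL26) in supernatant quantified by MSD immunoassay.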

SMILES | DC50 (STAT6) | EC50 [1]
CNc1cc(=O)n(-c2ccnc3c2cc([C@H](C)N2CC=C(c4c(C)cc(C(=O)N5CCC(CN6CCN(Cc7cc8c(cc7F)N([C@@H]7CCC(=O)NC7=O)C(=O)C87CC7)CC6)CC5)cc4F)CC2)n3C)cc1F (single isomer, unassigned) [Example 3u153] | 4.1 nM | 8.7 nM
CNc1cc(=O)n(-c2ccnc3c2cc([C@H](C)N2CC=C(c4c(C)cc(C(=O)N5CCC(CN6CCN(Cc7cc8c(cc7F)N([C@H]7CCC(=O)NC7=O)C(=O)C87CC7)CC6)CC5)cc4F)CC2)n3C)cc1F (single isomer, unassigned) [Example 3u154] | 6.4 nM | 10.1 nM
CNc1ccn(-c2ccnc3c2cc([C@H](C)N2CC=C(c4c(C)cc(C(=O)N5CCC(CN6CCN(Cc7ccc8c(c7)n(C)c(=O)n8[C@@H]7CCC(=O)NC7=O)CC6)CC5)cc4F)CC2)n3C)c(=O)c1 (single isomer, unassigned) [Example 3u157] | 0.3 nM | 0.4 nM
CNc1ccn(-c2ccnc3c2cc(CN2CCC(c4c(C)cc(C(=O)N5CCC(CN6CCN(Cc7ccc8c(c7)n(C)c(=O)n8[C@@H]7CCC(=O)NC7=O)CC6)CC5)cc4F)CC2)n3C)c(=O)c1 (single isomer, unassigned) [Example 3u159] | 12.8 nM | 52.6 nM
CNc1ccn(-c2ccnc3c2cc(CN2CCC(c4c(C)cc(C(=O)N5CCC(CN6CCN(Cc7ccc8c(c7)n(C)c(=O)n8[C@H]7CCC(=O)NC7=O)CC6)CC5)cc4F)CC2)n3C)c(=O)c1 (single isomer, unassigned) [Example 3u160] | 10.9 nM | 27.5 nM
CNc1ccn(-c2ccnc3c2cc(CN2CC=C(c4c(C)cc(C(=O)N5CCC(CN6CCN(Cc7ccc8c(c7)n(C)c(=O)n8[C@H]7CCC(=O)NC7=O)CC6)CC5)cc4F)CC2)n3C)c(=O)c1 (single isomer, unassigned) [Example 3u161] | 3.1 nM | 1.7 nM
CNc1ccn(-c2ccnc3c2cc(CN2CC=C(c4c(C)cc(C(=O)N5CCC(CN6CCN(Cc7ccc8c(c7)n(C)c(=O)n8[C@@H]7CCC(=O)NC7=O)CC6)CC5)cc4F)CC2)n3C)c(=O)c1 (single isomer, unassigned) [Example 3u162] | 3.3 nM | 2.3 nM
C[C@H]1CN(Cc2ccc3c(c2)C(C)(C)C(=O)N3[C@H]2CCC(=O)NC2=O)CCN1CC1CCN(C(=O)c2ccc(C3CCN([C@@H](C)c4cc5c(-n6ccc7c(c6=O)CCN7)ccnc5n4C)CC3)cc2)CC1 (single isomer, unassigned) [Example 3u185] | 2.8 nM | 2.3 nM
C[C@H]1CN(Cc2ccc3c(c2)C(C)(C)C(=O)N3[C@@H]2CCC(=O)NC2=O)CCN1CC1CCN(C(=O)c2ccc(C3CCN([C@@H](C)c4cc5c(-n6ccc7c(c6=O)CCN7)ccnc5n4C)CC3)cc2)CC1 (single isomer, unassigned) [Example 3u186] | 3.5 nM | 4.6 nM
CNc1ccn(-c2ccnc3c2cc([C@H](C)N2CCC(c4ccc(C(=O)N5CCC(CN6CCN(Cc7ccc8c(c7)C(C)(C)C(=O)N8[C@@H]7CCC(=O)NC7=O)C[C@@H]6C)CC5)cc4)CC2)n3C)c(=O)c1 (single isomer, unassigned) [Example 3u189] | 4.7 nM | 7.7 nM
CNc1ccn(-c2ccnc3c2cc([C@H](C)N2CC=C(c4c(C)cc(C(=O)N5CCC(CN6CCN(Cc7cc8c(cc7F)N([C@H]7CCC(=O)NC7=O)C(=O)C87CC7)C[C@@H]6C)CC5)cc4F)CC2)n3C)c(=O)c1 (single isomer, unassigned) [Example 3u194] | 1.7 nM | 0.9 nM
CNc1ccn(-c2ccnc3c2cc([C@H](C)N2CC=C(c4c(C)cc(C(=O)N5CCC(CN6CCN(Cc7cc8c(cc7F)N([C@@H]7CCC(=O)NC7=O)C(=O)C87CC7)C[C@@H]6C)CC5)cc4F)CC2)n3C)c(=O)c1 (single isomer, unassigned) [Example 3u195] | 1.6 nM | 2.2 nM
CNc1ccn(-c2ccnc3c2cc([C@H](C)N2CCC(c4c(C)cc(C(=O)N5CCC(CN6CCN(Cc7ccc8c(c7)n(C7CC7)c(=O)n8[C@H]7CCC(=O)NC7=O)C[C@@H]6C)CC5)cc4F)CC2)n3C)c(=O)c1 (single isomer, unassigned) [Example 3u198] | 1.2 nM | 1.6 nM
CNc1ccn(-c2ccnc3c2cc([C@H](C)N2CCC(c4c(C)cc(C(=O)N5CCC(CN6CCN(Cc7ccc8c(c7)n(C7CC7)c(=O)n8[C@@H]7CCC(=O)NC7=O)C[C@@H]6C)CC5)cc4F)CC2)n3C)c(=O)c1 (single isomer, unassigned) [Example 3u199] | 1.1 nM | 2.7 nM

Next, values leading:

DC50 (STAT6) | EC50 [1] | SMILES
3.5 nM | 15.4 nM | Cc1cc(C(=O)N2CCC(CN3CCN(Cc4ccc5c(c4)C(C)(C)C(=O)N5[C@@H]4CCC(=O)NC4=O)C[C@@H]3C)CC2)cc(F)c1C1=CCN([C@@H](C)c2cc3c(-n4cc(F)c(N)cc4=O)ccnc3n2C)CC1 (single isomer, unassigned) [Example 3u171]
3.1 nM | 7.8 nM | CNc1cc(=O)n(-c2ccnc3c2cc([C@H](C)N2CC=C(c4c(C)cc(C(=O)N5CCC(CN6CCN(Cc7ccc8c(c7)C(C)(C)C(=O)N8[C@H]7CCC(=O)NC7=O)C[C@@H]6C)CC5)cc4F)CC2)n3C)cc1F (single isomer, unassigned) [Example 3u173]
3.8 nM | 11 nM | CNc1cc(=O)n(-c2ccnc3c2cc([C@H](C)N2CC=C(c4c(C)cc(C(=O)N5CCC(CN6CCN(Cc7ccc8c(c7)C(C)(C)C(=O)N8[C@@H]7CCC(=O)NC7=O)C[C@@H]6C)CC5)cc4F)CC2)n3C)cc1F (single isomer, unassigned) [Example 3u174]
2.3 nM | 9.8 nM | CNc1ccn(-c2ccnc3c2cc([C@H](C)N2CC=C(c4c(C)cc(C(=O)N5CCC(CN6CCN(Cc7ccc8c(c7)C(C)(C)C(=O)N8[C@H]7CCC(=O)NC7=O)C[C@@H]6C)CC5)cc4F)CC2)n3C)c(=O)c1 (single isomer, unassigned) [Example 3u176]
1.8 nM | 3.1 nM | CNc1ccn(-c2ccnc3c2cc([C@H](C)N2CC=C(c4c(C)cc(C(=O)N5CCC(CN6CCN(Cc7ccc8c(c7)C(C)(C)C(=O)N8[C@@H]7CCC(=O)NC7=O)C[C@@H]6C)CC5)cc4F)CC2)n3C)c(=O)c1 (single isomer, unassigned) [Example 3u177]
6.1 nM | 12.4 nM | CNc1ccn(-c2ccnc3c2cc(CN2CC=C(c4c(C)cc(C(=O)N5CCC(CN6CCN(Cc7ccc8c(c7)C(C)(C)C(=O)N8[C@H]7CCC(=O)NC7=O)C[C@@H]6C)CC5)cc4F)CC2)n3C)c(=O)c1 (single isomer, unassigned) [Example 3u179]
8.8 nM | 17.3 nM | CNc1ccn(-c2ccnc3c2cc(CN2CC=C(c4c(C)cc(C(=O)N5CCC(CN6CCN(Cc7ccc8c(c7)C(C)(C)C(=O)N8[C@@H]7CCC(=O)NC7=O)C[C@@H]6C)CC5)cc4F)CC2)n3C)c(=O)c1 (single isomer, unassigned) [Example 3u180]
5.9 nM | 8 nM | CNc1ccn(-c2ccnc3c2cc([C@H](C)N2CC=C(c4c(C)cc(C(=O)N5CCC(CN6CCN(Cc7cc8c(cc7F)N([C@@H]7CCC(=O)NC7=O)C(=O)C8(C)C)C[C@@H]6C)CC5)cc4F)CC2)n3C)c(=O)c1 (single isomer, unassigned) [Example 3u183]
0.4 nM | 0.5 nM | CNc1ccn(-c2ccnc3c2cc([C@H](C)N2CC=C(c4c(C)cc(C(=O)N5CCC(CN6CCN(Cc7ccc8c(c7)C7(CC7)C(=O)N8[C@H]7CCC(=O)NC7=O)C[C@@H]6C)CC5)cc4F)CC2)n3C)c(=O)c1 (single isomer, unassigned) [Example 3u191]
0.6 nM | 0.9 nM | CNc1ccn(-c2ccnc3c2cc([C@H](C)N2CC=C(c4c(C)cc(C(=O)N5CCC(CN6CCN(Cc7ccc8c(c7)C7(CC7)C(=O)N8[C@@H]7CCC(=O)NC7=O)C[C@@H]6C)CC5)cc4F)CC2)n3C)c(=O)c1 (single isomer, unassigned) [Example 3u192]
1.9 nM | 2.6 nM | CNc1ccn(-c2ccnc3c2cc([C@H](C)N2CC=C(c4c(F)cc(C(=O)N5CCC(CN6CCN(Cc7ccc8c(c7)C(C)(C)C(=O)N8[C@H]7CCC(=O)NC7=O)C[C@@H]6C)CC5)cc4F)CC2)n3C)c(=O)c1 (single isomer, unassigned) [Example 3u202]
